# Experimental data reported in US20060205949A1, “Crystalline forms of a biphenyl compound” (THERAVANCE, INC., priority 2005, published 2006).
# Molecular target: T1, M3 muscarinic receptor subtype (hM3) (Homo sapiens, UniProt P20309)
# T1 construct: expressed in transfected cells
# Assay: Radioligand binding assay ([3H]-NMS displacement)
# Settings: CHO cell membranes, tested in this or a similar assay
# Description: CHO cell lines stably expressing cloned human hM1, hM2, hM3 and hM4 muscarinic receptor subtypes, respectively, were grown to near confluency in medium consisting of HAM's F-12 supplemented with 10% FBS and 250 μg/mL Geneticin. The cells were grown in a 5% CO2, 37° C. incubator and lifted with 2 mM EDTA in DPBS. Cells were collected by 5 minute centrifugation at 650×g, and cell pellets were either stored frozen at −80° C. or membranes were prepared immediately. For membrane preparation, cell pellets were resuspended in lysis buffer and homogenized with a Polytron PT-2100 tissue disrupter (Kinematica AG; 20 seconds×2 bursts). Crude membranes were centrifuged at 40,000×g for 15 minutes at 4° C. […] The protein concentration of the membrane suspension was determined by the method described in Lowry, O. et al., Journal of Biochemistry 193:265 (1951). […]
# Radioligand binding assays were performed in 96-well microtiter plates in a total assay volume of 100 μL. […] Filter plates were rinsed three times with wash buffer (10 mM HEPES) to remove unbound radioactivity. […] The plates were then counted in a PerkinElmer Topcount liquid scintillation counter (PerkinElmer Inc., Wellesley, Mass.). Binding data were analyzed by nonlinear regression analysis with the GraphPad Prism Software package (GraphPad Software, Inc., San Diego, Calif.) using the one-site competition model. […]
# T1 sequence (P20309 whole entry): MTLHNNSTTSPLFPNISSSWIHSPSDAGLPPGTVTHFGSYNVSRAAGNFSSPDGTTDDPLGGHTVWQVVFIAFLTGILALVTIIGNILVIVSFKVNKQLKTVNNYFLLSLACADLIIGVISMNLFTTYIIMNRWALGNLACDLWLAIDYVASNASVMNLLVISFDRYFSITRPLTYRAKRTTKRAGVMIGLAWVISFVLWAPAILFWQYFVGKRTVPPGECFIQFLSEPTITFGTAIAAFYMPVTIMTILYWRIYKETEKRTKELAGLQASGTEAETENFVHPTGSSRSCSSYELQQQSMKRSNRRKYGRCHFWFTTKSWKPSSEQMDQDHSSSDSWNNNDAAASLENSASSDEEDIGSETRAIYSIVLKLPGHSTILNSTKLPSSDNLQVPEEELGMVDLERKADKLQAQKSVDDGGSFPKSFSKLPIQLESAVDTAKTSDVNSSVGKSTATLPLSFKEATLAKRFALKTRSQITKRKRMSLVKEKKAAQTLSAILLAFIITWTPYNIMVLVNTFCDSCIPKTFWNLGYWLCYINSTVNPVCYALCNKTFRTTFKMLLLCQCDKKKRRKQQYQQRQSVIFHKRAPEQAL
structure (smiles),measurement,value
"O=C(CCN1CCC(OC(=O)Nc2ccccc2-c2ccccc2)CC1)NCCCCCNCc1ccc(O)cc1 [compound of formula I, biphenyl-2-ylcarbamic acid 1-{2-[5-(4-hydroxybenzylamino)pentylcarbamoyl]ethyl}piperidin-4-yl ester]",Ki,< 5 nM
